Source: article PMC9188596, “Structural basis of resistance to herbicides that target acetohydroxyacid synthase” (Nature Communications, 2022)
“And” between values parts separate entries of the source, which are not always exact repeats. Equal entries are not always repeated. Where two headings read alike, the source gives them in different places.

Experiments:
[1] = biological target: T1, AtAHAS P197T mutant (Arabidopsis thaliana, UniProt P17597, P197T); assay: biochemical
Procedure: (§1) Standard assays were performed using a continuous spectrophotometric method measuring the disappearance of pyruvate. The standard buffer contained 50 mM potassium phosphate, pH 7.2, 1 mM ThDP, 10 mM MgCl2, and 10 µM FAD. The concentration of pyruvate was in the range 100–160 mM, as described in the text, methods, or figure legends.
(§2) Supplementary Figure 6. Measurement of the Ki values for WT AtAHAS and the mutants.
(§3) The error bars represent the standard error of the mean of two independent replicates. [I] =
(§4) inhibitor concentration. Source data are provided with this paper.
(§5) (1 picture or pasted object on this page, not shown here)

[2] = biological target: T2, AtAHAS P197L mutant (Arabidopsis thaliana, UniProt P17597, P197L); assay: biochemical
Procedure: as §1, §2, §3, §4, §5

[3] = biological target: T3, AtAHAS W574L mutant (Arabidopsis thaliana, UniProt P17597, W574L); assay: biochemical
Procedure: as §1, §2, §3, §4, §5

[4] = biological target: T4, AtAHAS S653T mutant (Arabidopsis thaliana, UniProt P17597, S653T); assay: biochemical
Procedure: as §1, §2, §3, §4, §5

[5] = biological target: T5, WT AtAHAS (Arabidopsis thaliana, UniProt P17597); assay: Ki of herbicides, continuous spectrophotometric AHAS assay; type: biochemical
Procedure: as §1, §2, §3, §4, §5

[6] = biological target: T5, WT AtAHAS; settings: ± standard error of the mean, cited from earlier work
[7] = biological target: T1, AtAHAS P197T mutant; type: biochemical; settings: P197T, NAI = no accumulative inhibition detected
Procedure: as §1
(§6) AtAHAS was assayed in the standard assay buffer containing 160 mM pyruvate, at 30 °C. For AtAHAS activation the progress curve corresponding to the lag-phase was fitted to Eq. (8) of Lonhienne et al.[14]. For the time dependent accumulative inhibition of AtAHAS the progress curves were fitted to Equation 9 of Lonhienne et al.[12].
(§7) Supplementary Figure 8. Measurement of the rate constants of accumulative inhibition for WT AtAHAS and its mutants. The progress curves were fitted to the equation of accumulative inhibition (Equation 7 2). The rate constants of enzyme inactivation ( kiapp) and enzyme recovery (k3) were measured in triplicate. Source data are provided with this paper. […]

[8] = biological target: T2, AtAHAS P197L mutant; type: biochemical; settings: NAI = no accumulative inhibition detected
Procedure: as §1, §6, §7

[9] = biological target: T3, AtAHAS W574L mutant; type: biochemical; settings: NAI = no accumulative inhibition detected
Procedure: as §1, §6, §7

[10] = biological target: T4, AtAHAS S653T mutant; type: biochemical
Procedure: as §1, §6, §7

[11] = biological target: T5, WT AtAHAS; type: biochemical
Procedure: as §1, §6
Supplementary Figure 8. Measurement of the rate constants of accumulative inhibition for WT AtAHAS and its mutants. The progress curves were fitted to the equation of accumulative inhibition (Equation 7 2). The rate constants of enzyme inactivation ( kiapp) and enzyme recovery (k3) were measured in triplicate. Source data are provided with this paper.

[12] = Ki (Supplementary Figure 6), P197T, fit of % activity remaining vs [I], two independent replicates
[13] = Ki, P197T mutant, ± standard error of the mean
[14] = Ki (Supplementary Figure 6), P197L, fit of % activity remaining vs [I], two independent replicates
[15] = Ki, P197L mutant, ± standard error of the mean
[16] = Ki, W574L mutant, ± standard error of the mean
[17] = Ki (Supplementary Figure 6), S653T, fit of % activity remaining vs [I], two independent replicates
[18] = Ki, S653T mutant, ± standard error of the mean
[19] = Ki (Supplementary Figure 6), W574L, fit of % activity remaining vs [I], two independent replicates
[20] = S653T, 160 mM pyruvate, 30 °C, ± SEM
[21] = S653T, individual replicate of triplicate
[22] = individual replicate of triplicate

With COc1cc(OC)n2nc(S(=O)(=O)Nc3c(Cl)ccc(C)c3Cl)nc2n1 [MT, metosulam] the Ki [1, 12] was 1130 ± 130 nM, the Ki [1, 13] was 1130 ± 130 nM and the Ki [2, 14] was 1320 ± 131 nM. The Ki [2, 15] was 1320 ± 130 nM, the Ki [3, 16] was 39300 ± 3900 nM and the Ki [4, 17] was 66 ± 5.64 nM. For the same molecule, the Ki [4, 18] was 66 ± 5.6 nM, the Ki ([5]; Ki (Supplementary Figure 6), Wild type AtAHAS, fit of % activity remaining vs [I], two independent replicates) was 28.7 ± 11.2 nM and the Ki ([5]; Ki, WT AtAHAS, ± standard error of the mean) was 29 ± 11.2 nM.
COc1cc(OC)nc(Sc2cccc(Cl)c2C(=O)O)n1 [PTB, pyrithiobac] showed a Ki [1, 12] of 1460 ± 282 nM, a Ki [1, 13] of 1500 ± 300 nM and a Ki [2, 14] of 1950 ± 194 nM. For the same molecule, the Ki [2, 15] was 2000 ± 200 nM, the Ki [3, 19] was 91200 ± 8190 nM and the Ki [3, 16] was 91200 ± 8200 nM. For the same molecule, the Ki [4, 17] was 218 ± 15.8 nM, the Ki [4, 18] was 218 ± 15.8 nM and the Ki ([6]; ref Garcia et al.[13]) was 179 ± 12 nM.
COc1cnc(OC)n2nc(NS(=O)(=O)c3c(OCC(F)F)cccc3C(F)(F)F)nc12 [PS, penoxsulam] showed a Ki [1, 13] of 85 ± 6.3 nM, a Ki [2, 14] of 81.9 ± 7.26 nM and a Ki [2, 15] of 82 ± 7 nM. For the same molecule, the Ki [3, 19] was 67100 ± 2970 nM, the Ki [3, 16] was 67100 ± 3000 nM and the “increase in Ki / loss of affinity compared to WT” value ([3]; W574L vs WT) was 35,000 fold. For the same molecule, the Ki [4, 17] was 5.04 ± 2.24 nM, the Ki [4, 18] was 5 ± 2.2 nM and the “k3 (rate of recovery)” value ([7]; 160 mM pyruvate, 30 °C) was “NAI”. The “kiapp (apparent rate of enzyme inactivation)” value ([7]; 160 mM pyruvate, 30 °C) was “NAI”, the “kiapp/k3 (efficiency of accumulative inhibition)” value [7] was “NAI” and the “k3 (rate of recovery)” value ([8]; 160 mM pyruvate, 30 °C) was “NAI”. The “kiapp (apparent rate of enzyme inactivation)” value ([8]; 160 mM pyruvate, 30 °C) was “NAI”, the “kiapp/k3 (efficiency of accumulative inhibition)” value [8] was “NAI” and the “k3 (rate of recovery)” value ([9]; 160 mM pyruvate, 30 °C) was “NAI”. For the same molecule, the “kiapp (apparent rate of enzyme inactivation)” value ([9]; 160 mM pyruvate, 30 °C) was “NAI”, the “kiapp/k3 (efficiency of accumulative inhibition)” value [9] was “NAI” and the “kiapp/k3 (efficiency of accumulative inhibition)” value ([10]; S653T) was 126. The “efficiency of accumulative inhibition (kiapp/k3) compared to WT (in words)” value ([10]; S653T vs WT) was “increased”, the “k3 (rate of recovery)” value [10, 20] was 0.015 ± 0.001 min⁻¹ and the “kiapp (apparent rate of enzyme inactivation)” value [10, 20] was 1.89 ± 0.12 min⁻¹. For the same molecule, the “k3, single progress curve (Supplementary Figure 8)” value [10, 21] was 0.013 min⁻¹ and 0.016 min⁻¹ and 0.015 min⁻¹, the “kiapp, single progress curve (Supplementary Figure 8)” value [10, 21] was 1.78 min⁻¹ and 2.1 min⁻¹ and 1.71 min⁻¹ and the “kiapp/k3 (efficiency of accumulative inhibition)” value [11] was 87. The “k3 (rate of recovery)” value ([11]; 160 mM pyruvate, 30 °C, ± SEM) was 0.014 ± 0.002 min⁻¹, the “kiapp (apparent rate of enzyme inactivation)” value ([11]; 160 mM pyruvate, 30 °C, ± SEM) was 1.22 ± 0.09 min⁻¹ and the “k3, single progress curve (Supplementary Figure 8)” value [11, 22] was 0.017 min⁻¹ and 0.011 min⁻¹ and 0.013 min⁻¹. The “kiapp, single progress curve (Supplementary Figure 8)” value [11, 22] was 1.4 min⁻¹ and 1.11 min⁻¹ and 1.17 min⁻¹ and the Ki ([6]; ref Lonhienne et al.[11]) was 1.9 ± 0.9 nM.
